Assay [1] concerns the target KSR2 (purified hKSR2-rMEK1 complex) (Homo sapiens (Human), UniProt Q6VAB6). The experiment in a line: ATP-biotin probe labeling and inhibitor competition (KSR2 band). It is filed as binding. Conditions: for competition of ATPbiotin probe labeling in KSR2:MEK1 complexes (in words): screen / SAR statements; for KSR binding (assessed): panel of known kinase inhibitors. An excerpt:
Human KSR2 (residues 634-950) and rabbit MEK1 (residues 1 to 393) were codon optimized for insect cell expression by DNA 2.0. Inserts were expressed with TEV cleavable 6×-His tags from the pFastBac Dual expression vector. Bacmids were used to transfect adherent SF21 cells and viruses were subsequently titred to high levels through serial infections of SF21 cells. […] Briefly, following infections, cells were harvested, lysed, and affinity purified using Co2+ sepharose resin (GoldBio). […] Dialysis retentate was diluted 3 fold and then applied to a Resourse S ion exchange column. […] One-to-one hKSR2-MEK1 complexes were captured in late fractions from an increasing salt gradient. Complexes were later applied to a 120 mL Superdex 200 gel filtration column and finally concentrated to approximately 10 mg/mL before flash freezing for biochemical assays.
The ATP-biotin assay was performed in buffer containing 25 mM Tris pH 7.5, 150 mM NaCl, 10 mM MgCl2, and 2% DMSO. […] In particular, hKSR2-rMEK1 was pre-incubated with 20 μM of the indicated compounds for 15 minutes. Then, ATP-biotin (Pierce Cat. #88310) was added to a final concentration of 2 μM. Reactions were incubated at room temperature for 5 minutes before being stopped by the addition of 6×SDS loading dye. […] Enhanced chemiluminescence signals corresponding to labeling on KSR2 and MEK1 were visualized and quantified using the Biodoc system (Biorad). Relative signals of Streptavidin HRP on bands corresponding to KSR2 and MEK1 in the presence of compounds relative to DMSO controls were used to determine ‘Percent Inhibition of ATP Probe Labeling’.
For the ATP^biotin labeling competition screen, samples were applied to a 4-20% Tris-HCl gel, separated, and then transferred to a nitrocellulose membrane. The membrane was blocked with 5% bovine serum albumin diluted in TBS-T for 30 minutes and subsequently probed with the Pierce™ High Sensitivity Streptavidin-HRP. After several washes, the membranes were visualized using enhanced chemiluminescence on a Biodoc (Biorad).

In assay [2] the test system is KSR-stimulated MEK and ERK phosphorylation. Description: Cell-based reconstitution system monitoring KSR-driven MAPK signaling. Conditions: for suppression of KSR-stimulated MEK and ERK phosphorylation: KSR expression-dependent MAPK signaling. The source says: To assess the biological function of lead compounds as Ras-MAPK pathway antagonists, a simplified cell-based reconstitution system was developed to directly monitor KSR-driven MAPK signaling. […] Based on similarity in phenotype and direct-binding activity, Compound 21 was identified as a small molecule mimic of KSR alleles that suppress oncogenic Ras mutations.

Assay [3] has as its system MAPK pathway readouts (pERK, pMEK, pRSK) in A375 and HCT-116. Description: Western blot of MAPK pathway readouts, treatment with trametinib combinations. Conditions: for MAPK pathway inhibition (pERK, pMEK, pRSK) in combination with trametinib: combined with trametinib, A375 and HCT-116. It is filed as cell-based. In general terms: Immunoblotting shows a protein as a band on a membrane.

Assay [4] has as its target MEK1 (purified hKSR2-rMEK1 complex) (Oryctolagus cuniculus (Rabbit), UniProt P29678). Description: ATP-biotin probe labeling competition (MEK1 band). It is filed as binding. Conditions: competition with free ATP, purified KSR2:MEK1; read-out: free ATP IC50, ATPbiotin labeling of MEK1. An excerpt:
Human KSR2 (residues 634-950) and rabbit MEK1 (residues 1 to 393) were codon optimized for insect cell expression by DNA 2.0. Inserts were expressed with TEV cleavable 6×-His tags from the pFastBac Dual expression vector. Bacmids were used to transfect adherent SF21 cells and viruses were subsequently titred to high levels through serial infections of SF21 cells. […] Briefly, following infections, cells were harvested, lysed, and affinity purified using Co2+ sepharose resin (GoldBio). […] Dialysis retentate was diluted 3 fold and then applied to a Resourse S ion exchange column. This step removed excess MEK1, which binds weakly to the S column. One-to-one hKSR2-MEK1 complexes were captured in late fractions from an increasing salt gradient. Complexes were later applied to a 120 mL Superdex 200 gel filtration column and finally concentrated to approximately 10 mg/mL before flash freezing for biochemical assays.
The ATP-biotin assay was performed in buffer containing 25 mM Tris pH 7.5, 150 mM NaCl, 10 mM MgCl2, and 2% DMSO. Purified hKSR2-rMEK1 was assayed at 0.5 μM. In particular, hKSR2-rMEK1 was pre-incubated with 20 μM of the indicated compounds for 15 minutes. Then, ATP-biotin (Pierce Cat. #88310) was added to a final concentration of 2 μM. […] Enhanced chemiluminescence signals corresponding to labeling on KSR2 and MEK1 were visualized and quantified using the Biodoc system (Biorad). […]

Assay [5] has as its target KSR2:B-RAF^F667E dimers (Homo sapiens, UniProt Q6VAB6). The experiment in a line: Biolayer inferometry of KSR2:B-RAF dimerization (Octet Red96). The assay is classed as binding. The following applies: compound at 25 μM. As for the experimental part: B-RAF and B-RAF mutants (F667E+/−R509H) were immobilized on sensor-heads and KSR2:MEK1 or MEK1 assembly was monitored. Curves indicate dose ranges of KSR2:MEK1 or MEK1 from 625 nM to 10 μM. In all plots, association occurred from 0 to 660 seconds, and dissociation was monitored thereafter up to 1500 seconds. Compound 21 and trametinib were added in the presence of KSR2:MEK1 at a concentration of 25 μM each.
To directly investigate the impact of Compound 21 on KSR2:B-RAF dimerization, bio-layer inferometry (BLI) was utilized to monitor real-time association and dissociation of KSR2:MEK1 or free MEK1 to a sensor tethered with immobilized B-RAF.
To specifically monitor KSR2:B-RAF dimerization relative to other possible interactions, a mutation in B-RAF^F667E was identified that eliminates binding to free MEK but not KSR2-MEK1 complexes, as shown in FIGS. 7C-7D. […]
Interactions between purified B-RAF and the KSR2:MEK1 complex were measured using biolayer inferometry on the Octet Red96 system (Forte Bio). […] Association and dissociation was monitored over 660 and 840 seconds, respectively. Data sets were normalized and analysed using global fit binding models (Fortebio software). […]

[6] abbreviates: ATPbiotin probe labeling competition, 0.1 μM KSR2:MEK1, 27 nM to 20 μM compound, triplicate, read-out: KSR2 IC50.

pIC50: −log10 of the molar value. Counter-ions that a name gives are not always drawn. Like-named read-outs stand apart in the source and are kept apart here.

Sequence of KSR2 (purified hKSR2-rMEK1 complex) (Q6VAB6 634-950): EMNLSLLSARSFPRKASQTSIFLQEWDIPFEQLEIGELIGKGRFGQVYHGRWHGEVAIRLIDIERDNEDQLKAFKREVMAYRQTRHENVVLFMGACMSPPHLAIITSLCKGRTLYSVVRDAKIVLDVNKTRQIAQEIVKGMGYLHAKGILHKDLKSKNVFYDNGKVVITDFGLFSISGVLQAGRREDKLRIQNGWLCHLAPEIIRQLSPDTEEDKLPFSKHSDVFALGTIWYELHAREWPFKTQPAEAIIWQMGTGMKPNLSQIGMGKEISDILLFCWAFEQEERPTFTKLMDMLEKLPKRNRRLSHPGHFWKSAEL
Sequence of KSR2 (purified hKSR2-rMEK1 complex) (P29678 whole entry partner, the tested form may be a part): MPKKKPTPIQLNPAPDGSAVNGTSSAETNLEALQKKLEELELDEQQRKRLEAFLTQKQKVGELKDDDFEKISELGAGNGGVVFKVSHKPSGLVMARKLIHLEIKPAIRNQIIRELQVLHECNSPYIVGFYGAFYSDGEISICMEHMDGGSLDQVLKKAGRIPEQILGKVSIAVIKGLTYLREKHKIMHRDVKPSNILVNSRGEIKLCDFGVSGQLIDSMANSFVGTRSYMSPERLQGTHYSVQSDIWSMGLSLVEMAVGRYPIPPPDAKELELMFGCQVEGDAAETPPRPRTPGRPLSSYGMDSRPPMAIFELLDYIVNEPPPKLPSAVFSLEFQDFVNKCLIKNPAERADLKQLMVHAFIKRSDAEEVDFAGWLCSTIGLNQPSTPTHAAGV
Sequence of MEK1 (purified hKSR2-rMEK1 complex) (P29678 whole entry, the tested form may be a part): as the sequence (P29678 whole entry partner, the tested form may be a part) above
Sequence of MEK1 (purified hKSR2-rMEK1 complex) (Q6VAB6 634-950 partner): as the sequence (Q6VAB6 634-950) above

`COc1cc2ncnc(Nc3ccc(O)cc3)c2cc1OC` [Compound 7, 4-((6,7-Dimethoxyquinazolin-4-yl)amino)phenol hydrochloride]: in assay [1] (setting [6]), the pIC50 was less than 5.00.
For `COc1cc2ncnc(Nc3ccc(Oc4ccccc4)cc3)c2cc1OC.Cl` [Compound 2, 6,7-Dimethoxy-N-(4-phenoxyphenyl)quinazolin-4-amine], the “competition of ATPbiotin probe labeling in KSR2:MEK1 complexes (in words)” value (shortened to “competition of ATPbiotin probe labeling”) in assay [1] was “competitor of probe labeling”.
`CC(C)(C)c1nc(-c2cccc(NS(=O)(=O)c3c(F)cccc3F)c2F)c(-c2ccnc(N)n2)s1` [dabrafenib, reference compound]: in assay [2], the “suppression of KSR-stimulated MEK and ERK phosphorylation” value is reported as “active”. The “suppression of KSR-stimulated MAPK signaling with active site mutant KSR^A690F” value in assay [2] (KSR^A690F mutant) is given as “active”.
In the case of `COc1cc2nccc(Nc3ccc(Oc4ccccc4)cc3)c2cc1OC.Cl` [Compound 11, 6,7-Dimethoxy-N-(4-phenoxyphenyl)quinolin-4-amine hydrochloride], the “competition of ATPbiotin probe labeling” value in assay [1] was “moderately tolerated”.
On to `CS(=O)(=O)CCNCc1ccc(-c2ccc3ncnc(Nc4ccc(OCc5cccc(F)c5)c(Cl)c4)c3c2)o1` [lapatinib, reference compound], for which the “KSR binding (assessed)” value in assay [1] is given as “non-KSR binders”. Besides, the “MAPK pathway inhibition (pERK, pMEK, pRSK) in combination with trametinib” value (“MAPK pathway inhibition … with trametinib” for short) in assay [3] is recorded as “not observed”.
With `CCCS(=O)(=O)Nc1ccc(F)c(C(=O)c2c[nH]c3ncc(Cl)cc23)c1F` [PLX4720], in assay [3], the “MAPK pathway inhibition … with trametinib” value was “did not display the same pathway inhibition”.
`Cc1nc(Nc2ncc(C(=O)Nc3c(C)cccc3Cl)s2)cc(N2CCN(CCO)CC2)n1` [dasatinib, reference compound]: the “KSR binding (assessed)” value in assay [1] is reported as “non-KSR binders”. Besides, in assay [3], the “MAPK pathway inhibition … with trametinib” value was “not observed”.
The corresponding values for `CCN(CC)CCNC(=O)c1c(C)[nH]c(/C=C2\C(=O)Nc3ccc(F)cc32)c1C` [sutent, reference compound] are “non-KSR binders” and “not observed”.
Consider `Nc1ncnc2c1ncn2[C@@H]1O[C@H](COP(=O)(O)OP(=O)(O)OP(=O)(O)O)[C@@H](O)[C@H]1O` [ATP, reference compound], for which the pIC50 in assay [1] (competition with free ATP, purified KSR2:MEK1, read-out: free ATP IC50, ATPbiotin labeling of KSR2) is 4.07; in assay [4], 3.88.
As for `COc1cc2ncnc(Nc3ccc(Oc4ccccc4)c(C)c3C)c2cc1OC.Cl` [Compound 50, N-(2,3-Dimethyl-4-phenoxyphenyl)-6,7-dimethoxyquinazolin-4-amine hydrochloride], the negative-log IC50 (pIC50) in assay [1] (setting [6]) was less than 5.00. Also, in assay [2], the “suppression of KSR-stimulated MEK and ERK phosphorylation” value was “inactive”.
Consider `CC(=O)Nc1cccc(-n2c(=O)n(C3CC3)c(=O)c3c(Nc4ccc(I)cc4F)n(C)c(=O)c(C)c32)c1` [trametinib, reference compound], for which, in assay [5], the “enhancement of KSR2:B-RAF dimerization” value is roughly 2 fold. Besides, the “MAPK pathway inhibition (pERK, pMEK, pRSK), single agent” value in assay [3] (alone, compared with Compound 21 + trametinib co-treatment) was “did not display the same pathway inhibition”.
In the case of `COc1ccc(Nc2ncnc3cc(OC)c(OC)cc23)cc1` [Compound 3, 6,7-Dimethoxy-N-(4-methoxyphenyl)quinazolin-4-amine hydrochloride], in assay [1] (setting [6]), the pIC50 is less than 5.00.
With `C#Cc1cccc(Nc2ncnc3cc(OCCOC)c(OCCOC)cc23)c1` [erlotinib, reference compound], the “KSR binding (assessed)” value in assay [1] is given as “non-KSR binders”. Moreover, in assay [3], the “MAPK pathway inhibition … with trametinib” value was “not observed”.
`COc1cc2/c(=N/c3ccc(Oc4ccccc4)cc3)ncn(C)c2cc1OC` [Compound 32, (Z)—N-(6,7-Dimethoxy-1-methylquinazolin-4(1H)-ylidene)-4-phenoxyaniline]: the negative-log IC50 (pIC50) in assay [1] (setting [6]) is less than 5.00. Also, in assay [1], the “competition of ATPbiotin probe labeling” value was “greatly diminishes KSR2:MEK1 activity”.

As usually defined, the pIC50 is the IC50 on a negative log10 scale, so that one unit is a factor of ten.
